Data reported in publication PMC6628435, “Chemical Synthesis, Proper Folding, Nav Channel Selectivity Profile and Analgesic Properties of the Spider Peptide Phlotoxin 1” (Toxins, 2019).
Bridge positions count the residues as written; N and C are the ends. Peptide text beside a SMILES is read from it.

Key:
[1] = biological target: T1, hNav1.7 (Homo sapiens, UniProt Q15858); experiment: Manual patch clamp, reversibility of block of hNav1.7 currents; assay type: cell-based
T1 construct: expressed in transfected cells
Excerpt: Following our initial screen for the selectivity of synthetic PhlTx1 and the discovery that Nav1.7 was the main target, we decided to further evaluate the activity of PhlTx1. We used a CHO mammalian cell line expressing the human Nav1.7 instead of Xenopus oocytes for the pharmacological evaluation. To this end, we used an automated patch-clamp system, the Nanion syncropatch 384PE, and a standardized robotic method from Beckmann to apply PhlTx1 in the recording chambers and collect the kinetic information of Nav1.7 current from a high number of Nav1.7-expressing cells. The syncropatch 384PE has the potential to record from 384 cells at a time. 100-ms pulses from −100 mV to −10 mV were applied at a frequency of 0.2 Hz and various concentrations of PhlTx1 were applied to the cells. An example of a Nav1.7 current recording is illustrated in Figure 6A along with the effect of 100 nM PhlTx1. It is of interest to note that current inhibition develops over time at this PhlTx1 concentration that is above 50% at the end of a 13-min application time. […] Note that the highest achievable inhibition was 85%–92% for the two most efficient concentrations (333 nM and 1 μM). The time constant of inhibition was concentration-dependent as expected and could be fitted with decreasing mono-exponentials with time constants of 253 s (33 nM, n = 4), 159 s (100 nM, n = 8), 97 s (333 nM, n = 6) and 36 s (1 μM, n = 8). […] Using a manual patch clamp, which is better suited to investigate current recovery from block than an automated patch clamp that requires several washing steps, we investigated the reversibility properties of a PhlTx1 block. […] After 16 min of washout of 100 nM PhlTx1, we observed a maximum of 32% recovery of the blocked current that occurred with a time constant of 303 s. Since Nav1.4 and Nav1.6 were the two most sensitive channels to the PhlTx1 block, we also performed dose-response curves for these two channels with the automated patch clamp system.
Figure 6 PhlTx1 inhibition of Nav1.7 channels expressed in a mammalian cell line. […]

[2] = biological target: T2, hNav1.6 (Homo sapiens, UniProt Q9UQD0); experiment: Automated patch-clamp dose-response on hNav1.6 expressed in HEK293 cells; assay type: cell-based; conditions: 15 to 23 cells per concentration, read-out: calculated IC50
T2 construct: expressed in transfected cells; host or cells: HEK293 cells
Excerpt: Following our initial screen for the selectivity of synthetic PhlTx1 and the discovery that Nav1.7 was the main target, we decided to further evaluate the activity of PhlTx1. We used a CHO mammalian cell line expressing the human Nav1.7 instead of Xenopus oocytes for the pharmacological evaluation. To this end, we used an automated patch-clamp system, the Nanion syncropatch 384PE, and a standardized robotic method from Beckmann to apply PhlTx1 in the recording chambers and collect the kinetic information of Nav1.7 current from a high number of Nav1.7-expressing cells. The syncropatch 384PE has the potential to record from 384 cells at a time. 100-ms pulses from −100 mV to −10 mV were applied at a frequency of 0.2 Hz and various concentrations of PhlTx1 were applied to the cells. An example of a Nav1.7 current recording is illustrated in Figure 6A along with the effect of 100 nM PhlTx1. […]
PhlTx1 and other Nav1.7-acting toxins were investigated on CHO cells expressing the human Nav1.7 channel using the Automated patch-clamp system from Nanion (München, Germany), the SyncroPatch 384PE. […] Percentages of current inhibitions were measured at the end of a 12- to 15-min application time (12-min for fast blocking toxins; 15-min for slow blocking ones). […]

T1 sequence (Q15858 whole entry): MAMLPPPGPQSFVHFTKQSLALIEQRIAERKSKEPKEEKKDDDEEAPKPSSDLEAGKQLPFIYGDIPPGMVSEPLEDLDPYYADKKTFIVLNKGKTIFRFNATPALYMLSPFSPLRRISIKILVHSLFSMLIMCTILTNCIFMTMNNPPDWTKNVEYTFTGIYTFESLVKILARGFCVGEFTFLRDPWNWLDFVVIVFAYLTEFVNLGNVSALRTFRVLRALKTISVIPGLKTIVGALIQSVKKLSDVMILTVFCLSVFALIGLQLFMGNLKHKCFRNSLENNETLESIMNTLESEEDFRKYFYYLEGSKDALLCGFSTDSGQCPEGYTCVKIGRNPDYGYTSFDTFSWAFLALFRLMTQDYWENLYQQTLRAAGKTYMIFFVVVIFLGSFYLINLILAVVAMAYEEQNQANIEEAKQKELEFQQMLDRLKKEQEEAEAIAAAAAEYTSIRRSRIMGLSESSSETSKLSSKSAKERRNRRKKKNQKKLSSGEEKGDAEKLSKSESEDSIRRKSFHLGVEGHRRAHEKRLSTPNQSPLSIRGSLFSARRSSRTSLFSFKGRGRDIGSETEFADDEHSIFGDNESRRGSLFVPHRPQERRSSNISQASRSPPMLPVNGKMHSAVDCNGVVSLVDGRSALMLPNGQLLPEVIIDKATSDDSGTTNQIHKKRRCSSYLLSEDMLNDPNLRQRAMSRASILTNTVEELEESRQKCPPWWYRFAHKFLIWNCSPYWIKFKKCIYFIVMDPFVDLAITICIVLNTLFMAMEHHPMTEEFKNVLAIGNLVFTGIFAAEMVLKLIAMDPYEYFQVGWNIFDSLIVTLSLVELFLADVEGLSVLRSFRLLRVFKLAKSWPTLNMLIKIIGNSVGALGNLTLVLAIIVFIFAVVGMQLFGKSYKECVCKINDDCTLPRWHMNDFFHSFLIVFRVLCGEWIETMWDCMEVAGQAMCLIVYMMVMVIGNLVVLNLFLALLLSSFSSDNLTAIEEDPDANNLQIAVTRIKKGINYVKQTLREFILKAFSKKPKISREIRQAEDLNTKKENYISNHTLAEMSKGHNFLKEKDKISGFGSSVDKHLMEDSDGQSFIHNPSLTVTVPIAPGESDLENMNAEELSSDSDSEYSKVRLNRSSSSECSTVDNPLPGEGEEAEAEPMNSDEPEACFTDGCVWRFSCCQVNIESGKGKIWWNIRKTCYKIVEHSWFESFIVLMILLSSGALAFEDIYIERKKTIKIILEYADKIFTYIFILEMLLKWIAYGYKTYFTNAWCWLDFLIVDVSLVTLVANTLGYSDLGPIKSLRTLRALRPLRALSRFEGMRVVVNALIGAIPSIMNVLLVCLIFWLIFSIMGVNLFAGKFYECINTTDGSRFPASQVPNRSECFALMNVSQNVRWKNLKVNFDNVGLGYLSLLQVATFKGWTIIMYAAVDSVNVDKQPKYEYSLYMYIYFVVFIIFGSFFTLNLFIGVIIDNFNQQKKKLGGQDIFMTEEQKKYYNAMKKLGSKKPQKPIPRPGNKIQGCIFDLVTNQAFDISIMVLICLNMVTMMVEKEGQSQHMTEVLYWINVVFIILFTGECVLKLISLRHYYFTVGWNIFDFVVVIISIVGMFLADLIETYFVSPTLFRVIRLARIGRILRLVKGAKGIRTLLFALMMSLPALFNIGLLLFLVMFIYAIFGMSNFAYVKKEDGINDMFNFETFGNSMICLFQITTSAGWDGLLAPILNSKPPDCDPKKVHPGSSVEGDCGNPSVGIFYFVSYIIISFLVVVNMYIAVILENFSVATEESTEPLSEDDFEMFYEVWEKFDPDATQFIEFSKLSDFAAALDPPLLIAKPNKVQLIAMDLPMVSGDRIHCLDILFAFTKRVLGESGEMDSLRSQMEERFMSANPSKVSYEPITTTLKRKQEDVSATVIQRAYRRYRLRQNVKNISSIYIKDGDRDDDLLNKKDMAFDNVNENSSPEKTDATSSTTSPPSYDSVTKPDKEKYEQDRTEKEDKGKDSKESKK
T2 sequence (Q9UQD0 whole entry): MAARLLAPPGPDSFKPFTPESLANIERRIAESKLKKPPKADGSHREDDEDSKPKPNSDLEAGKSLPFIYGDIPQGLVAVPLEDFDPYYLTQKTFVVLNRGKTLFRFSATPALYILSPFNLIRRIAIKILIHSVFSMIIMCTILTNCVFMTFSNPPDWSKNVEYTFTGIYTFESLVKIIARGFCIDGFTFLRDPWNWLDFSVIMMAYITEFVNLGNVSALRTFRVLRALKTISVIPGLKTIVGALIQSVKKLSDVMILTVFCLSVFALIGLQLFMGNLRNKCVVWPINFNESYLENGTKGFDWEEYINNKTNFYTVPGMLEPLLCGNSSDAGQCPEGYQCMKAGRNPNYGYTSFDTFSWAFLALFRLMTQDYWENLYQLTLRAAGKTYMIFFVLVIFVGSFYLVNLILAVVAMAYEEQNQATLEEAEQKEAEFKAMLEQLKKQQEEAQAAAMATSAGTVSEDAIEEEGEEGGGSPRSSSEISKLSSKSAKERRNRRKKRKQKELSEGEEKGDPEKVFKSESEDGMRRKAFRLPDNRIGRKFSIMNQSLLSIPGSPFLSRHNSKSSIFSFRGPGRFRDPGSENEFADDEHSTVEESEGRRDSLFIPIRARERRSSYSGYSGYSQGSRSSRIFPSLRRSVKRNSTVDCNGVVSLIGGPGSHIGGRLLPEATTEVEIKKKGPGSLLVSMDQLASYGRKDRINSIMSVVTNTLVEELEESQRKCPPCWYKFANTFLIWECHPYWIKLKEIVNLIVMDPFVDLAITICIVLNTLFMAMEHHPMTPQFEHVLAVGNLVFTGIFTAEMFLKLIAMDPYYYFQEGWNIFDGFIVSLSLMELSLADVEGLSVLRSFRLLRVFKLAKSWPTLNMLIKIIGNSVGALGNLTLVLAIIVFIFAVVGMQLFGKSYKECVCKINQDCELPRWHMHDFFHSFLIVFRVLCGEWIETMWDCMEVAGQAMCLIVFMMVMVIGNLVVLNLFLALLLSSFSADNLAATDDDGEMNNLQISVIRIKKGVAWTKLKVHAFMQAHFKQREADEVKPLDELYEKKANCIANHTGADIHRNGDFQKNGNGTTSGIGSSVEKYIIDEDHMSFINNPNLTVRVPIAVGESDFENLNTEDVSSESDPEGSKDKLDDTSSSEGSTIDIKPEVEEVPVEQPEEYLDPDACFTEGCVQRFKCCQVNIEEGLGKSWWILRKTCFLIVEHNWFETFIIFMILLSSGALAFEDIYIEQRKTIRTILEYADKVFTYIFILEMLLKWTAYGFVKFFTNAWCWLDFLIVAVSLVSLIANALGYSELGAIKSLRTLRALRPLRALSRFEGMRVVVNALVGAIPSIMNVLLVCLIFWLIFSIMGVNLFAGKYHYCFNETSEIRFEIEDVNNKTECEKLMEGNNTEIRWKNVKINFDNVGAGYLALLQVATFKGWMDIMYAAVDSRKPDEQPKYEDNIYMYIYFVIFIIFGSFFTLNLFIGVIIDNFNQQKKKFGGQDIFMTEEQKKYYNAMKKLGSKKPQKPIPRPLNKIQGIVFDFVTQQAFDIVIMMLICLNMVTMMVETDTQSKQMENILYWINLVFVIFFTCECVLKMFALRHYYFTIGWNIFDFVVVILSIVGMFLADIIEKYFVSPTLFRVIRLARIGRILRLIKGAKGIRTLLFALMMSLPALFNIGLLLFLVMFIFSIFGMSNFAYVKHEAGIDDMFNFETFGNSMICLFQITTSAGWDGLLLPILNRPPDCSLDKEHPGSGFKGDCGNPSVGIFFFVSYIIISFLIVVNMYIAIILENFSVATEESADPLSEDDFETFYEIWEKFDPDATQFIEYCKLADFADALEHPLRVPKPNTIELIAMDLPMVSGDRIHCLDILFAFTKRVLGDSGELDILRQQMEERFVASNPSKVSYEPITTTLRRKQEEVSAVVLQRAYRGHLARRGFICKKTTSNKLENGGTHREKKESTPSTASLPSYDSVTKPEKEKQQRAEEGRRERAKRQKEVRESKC

Structure (SMILES): CC(C)C[C@@H]1NC(=O)[C@@H](NC(=O)[C@H](C)N)CSSC[C@@H]2NC(=O)[C@@H]3CSSC[C@@H](C(=O)N[C@@H](CCCNC(=N)N)C(=O)N[C@@H](Cc4ccc(O)cc4)C(=O)N[C@@H](CCCCN)C(=O)N[C@@H](CC(C)C)C(=O)N[C@@H](Cc4ccccc4)C(=O)O)NC(=O)[C@H](Cc4c[nH]c5ccccc45)NC(=O)[C@@H]4CCCN4C(=O)[C@H](Cc4ccc(O)cc4)NC(=O)[C@H](CCCCN)NC(=O)[C@H](Cc4c[nH]c5ccccc45)NC(=O)[C@H](CCC(=O)O)NC(=O)[C@H](CSSC[C@H](NC(=O)[C@H](CO)NC(=O)[C@H](CC(=O)O)NC(=O)[C@H](Cc4c[nH]c5ccccc45)NC(=O)[C@H](CCC(N)=O)NC(=O)CNC1=O)C(=O)N[C@@H](CC(=O)O)C(=O)N1CCC[C@H]1C(=O)N[C@@H](CCCCN)C(=O)N[C@@H](C)C(=O)N[C@@H](CO)C(=O)N[C@@H](CCCCN)C(=O)N3)NC(=O)[C@H](C)NC(=O)[C@H](Cc1ccc(O)cc1)NC(=O)[C@H](CC(N)=O)NC(=O)[C@@H]1CCCN1C2=O [PhlTx1, Phlotoxin-1] (H-ACLGQWDSCDPKASKCCPNYACEWKYPWCRYKLF-OH; disulfide 2-17, 9-22, 16-29; N-terminus and C-terminus assumed)
- reversibility of block [1]: partially and poorly reversible
- maximum recovery of the blocked current ([1]; after 16 min of washout of 100 nM PhlTx1, n = 5 cells): ≤ 32%
- time constant of recovery from block ([1]; washout of 100 nM PhlTx1, n = 5 cells): 303 s
- IC50 [2]: > 3 µM
